Reference: patent US9636348B2, “6-substituted estradiol derivatives for use in remyelination of nerve axons” (Endece LLC, priority 2011, dated 2017)

Legend:
Interleukin 28A (IL28A) = test: Expression profiling (Agilent microarray) in tumor cell lines: IL28A; type: cell-based, human; details: 24 hours, treated vs untreated, average of SKOV-3, A549 and Panc-1
Description: (§1) The study includes three human tumor cell lines: A549, Panc-1, and SK-OV-3. The lines are each grown in two flasks cultured to roughly 40% confluence. One of the flasks is treated by addition of compound to the culture media at a various concentrations, i.e. 10 μM, 20 μM 50 μM, 100 μM or 200 μM. The other, mock treated, flask is treated only with the vehicle used to solubilize and deliver the drug. RNA extracted from the pairs of treated and untreated samples is subjected to microarray analysis on Agilent Whole Human Genome Microarrays (G4112F). Each analysis reports the difference in abundance of messenger RNAs for each of the 41,000 specific mRNA detectors on the array. This direct comparison of the treated versus untreated samples for each cell line provides extremely sensitive detection of changes in mRNA abundance resulting from the drug treatment. As each cell line comparison is self-normalized, the results can be compared across the samples with high confidence.
(§2) Three human tumor cell lines, A549, Panc-1, and SK-OV-3, are each grown in two flasks cultured to roughly 40% confluence. One of the flasks is treated by addition of compound to the culture media at concentrations of 10 μM, 50 μM and 100 μM. The other, mock treated, flask is treated only with the vehicle used to solubilize and deliver the drug. All flasks are cultured for a further 24 hours, and then the cells are scraped free and washed in ice-cold PBS, then collected by centrifugation. The harvested cells are immediately frozen, and stored at −80° C. or colder.
(§3) Total RNA is prepared from the frozen tissue samples using Trizol-based cell lysis followed by 65° C. hot phenol extraction and RNeasy chromatography purification. The purified RNA samples are analyzed spectrophotometrically. The concentration of RNA is determined by measuring the absorbance at 260 nm (A260). Given an absorbance of 1 unit at 260 nm corresponds to […].
(§4) All RNAs are labeled using 1 microgram of RNA as input to an Agilent Low Input Labeling reaction.
(§5) Test RNA is labeled with Cy5 (650 nm emitter) and reference RNA is labeled with Cy3 (550 nm emitter) nucleotides. Labeling, hybridizations and subsequent washings are carried out on Agilent H1Av2 human expression chips. The resulting hybridized chips are scanned on an Agilent microarray scanner, and intensity information for each detector spot is extracted from the scanned image using Agilent feature extraction software. […]
(§6) After the ratios have been calculated for the normalized data, the various control and duplicate samples are analyzed to build a model of how reproducible the results are, and how this reproducibility is varies depending on signal strength and noise. […]

[1] = tested on: Myelin basic protein (variant 7) (MBP); test: Expression profiling (Agilent microarray) in tumor cell lines: MBP; type: cell-based, human; details: 24 hours, treated vs untreated, average of SKOV-3, A549 and Panc-1
Description: as §1, §2, §3, §4, §5, §6

[2] = tested on: Oligodentrocyte lineage transcription factor 2 (OLIG2); test: Expression profiling (Agilent microarray) in tumor cell lines: OLIG2; type: cell-based, human; details: 24 hours, treated vs untreated, average of SKOV-3, A549 and Panc-1
Description: as §1, §2, §3, §4, §5, §6

Connexin (AF251047) = test: Expression profiling (Agilent microarray) in tumor cell lines: Connexin; type: cell-based, human; details: 24 hours, treated vs untreated, average of SKOV-3, A549 and Panc-1
Description: as §1, §2, §3, §4, §5, §6

[3] = tested on: Myelin oligodentrocyte glycoprotein (variant alpha 4) (MOG); test: Expression profiling (Agilent microarray) in tumor cell lines: MOG; type: cell-based, human; details: 24 hours, treated vs untreated, average of SKOV-3, A549 and Panc-1
Description: as §1, §2, §3, §4, §5, §6

[4] = tested on: Interleukin 23 receptor (IL23R); test: Expression profiling (Agilent microarray) in tumor cell lines: IL23R; type: cell-based, human; details: 24 hours, treated vs untreated, average of SKOV-3, A549 and Panc-1
Description: as §1, §2, §3, §4, §5, §6

[5] = tested on: Transmembrane protein 108 (TMEM108); test: Expression profiling (Agilent microarray) in tumor cell lines: TMEM108; type: cell-based, human; details: 24 hours, treated vs untreated, average of SKOV-3, A549 and Panc-1
Description: as §1, §2, §3, §4, §5, §6

[6] = tested on: Delta/notch-like EFG repeat (DNER); test: Expression profiling (Agilent microarray) in tumor cell lines: DNER; type: cell-based, human; details: 24 hours, treated vs untreated, average of SKOV-3, A549 and Panc-1
Description: as §1, §2, §3, §4, §5, §6

[7] = tested on: Interleukin 20 receptor alpha (IL20RA); test: Expression profiling (Agilent microarray) in tumor cell lines: IL20RA; type: cell-based, human; details: 24 hours, treated vs untreated, average of SKOV-3, A549 and Panc-1
Description: as §1, §2, §3, §4, §5, §6

[8] = tested on: oligodendrocyte precursor cells (OPCs); test: Oligodendrocyte differentiation assay (PLP-EGFP reporter); type: cell-based, mouse; details: for Potency in OPC differentiation (in words): 4 days, FIGS. 1 and 3
Description: OPC cultures are prepared as described Pedraza, C. E. et al., Glia 56(12), 1339-52 (2008), incorporated herein by reference. Brains are removed from E14.5 C57Bl6/J (expressing PLP-EGFP) mice (Mallon, B. S. et al., J. Neurosci 22(3), 876-85 (2002)), cleaned and cortical hemispheres are isolated. Tissue is then triturated and seeded in T-25 cm^2 flasks at a density of 1 brain (2 cortical hemispheres) per flask. Neurospheres are passaged once after 3 days. Cells from passage 2 are used to prepare two 96-well plates for the primary screen. Following the initial 48 hour incubation in OPC media, the OPCs are treated with 10 μM of 17β-estradiol, compound 4 and compound 21, along with vehicle control DMSO and positive control compounds including […] ciliary neurotrophic factor (CNTF) and 1 μM extracellular-signal-regulated (ERK) kinase inhibitor (MEKi). Cells are treated for a total of 4 days and the media is replaced once at the 48 hour mark with fresh compounds. After the 4 day treatment the cells are fixed with 4% paraformaldehyde and stained with Hoechst 33342 to visualize nuclei. Cells are also stained with anti-GFAP (GFAP=glial fibrillary acidic protein) antibodies to identify astrocytes. Cells are blocked with 3% normal goat serum followed by an overnight incubation of anti-rabbit GFAP antibody (1:500). Cells are labeled with a 1:1000 concentration of secondary goat anti-rabbit Alexa 647 fluorochrome antibody. Images are acquired using the Cellomics Arrayscan VTI. Twenty fields at 10× magnification are acquired per well and the cells expressing EGFP (enhanced green gluorescent protein; mature oligodendrocytes) and GFAP (astrocytes) are evaluated by neuronal profiling algorithm.
The extent of oligodendrocyte maturation is measured by the level of the PLP-EGFP reporter signal, along with the extent of process formation (FIGS. 1-4; legend for FIGS. 1 and 3 are presented below in Table 2). Proteolipid protein (PLP) is used as a biomarker because it is known to be expressed in mature oligodendrocytes and is a component of the myelin sheath. […] Compared to DMSO and all other compounds tested, including CNTF, the extent of process formation is also greatest for compound 21 (FIGS. 2 and 4).

[9] = tested on: genes in signaling pathways involved in proliferation and differentiation of OPCs; test: Expression profiling in tumor cell lines: overall statement; type: cell-based, human; details: SKOV-3, A549 and Panc-1 cells, Table 1
Description: as §1
Three human tumor cell lines, A549, Panc-1, and SK-OV-3, are each grown in two flasks cultured to roughly 40% confluence. […]
as §6

| Compound | Gene expression IL28A (Interleukin 28A (IL28A); 50 μM) [log2] | Gene expression MBP ([1]; 50 μM) [log2] | Gene expression OLIG2 ([2]; 50 μM) [log2] | Gene expression Connexin AF251047 (Connexin (AF251047); 50 μM) [log2] | Gene expression MOG ([3]; 50 μM) [log2] | Gene expression IL23R ([4]; 50 μM) [log2] | Gene expression TMEM108 ([5]; 50 μM) [log2] | Gene expression DNER ([6]; 50 μM) [log2] | Gene expression IL20RA ([7]; 50 μM) [log2] | Potency in OPC differentiation (in words) ([8]; 10 μM) | Effect on genes in signaling pathways involved in proliferation and differentiation of OPCs [9] | further results |
| --- | --- | --- | --- | --- | --- | --- | --- | --- | --- | --- | --- | --- |
| COC[C@@H]1C[C@@H]2[C@H](CC[C@]3(C)C(O)CC[C@@H]23)c2ccc(O)cc21 (stereo partly drawn) [compound 4, (6R,8R,9S,13S,14S)-6-(methoxymethyl)-13-methyl-7,8,9,11,12,13,14,15,16,17-decahydro-6H-cyclopenta[a]phenanthrene-3,17-diol] | 1.35 | 4.72 | 4.98 | 3.38 | 3.99 | 3.62 | 3.59 | 5.16 | 3.17 | potent | up-regulate | Gene expression IL28A (Interleukin 28A (IL28A); 100 μM): 1.96 log2; Gene expression MBP ([1]; 100 μM): 4.80 log2; Gene expression OLIG2 ([2]; 100 μM): 4.59 log2; Gene expression Connexin AF251047 (Connexin (AF251047); 100 μM): 3.56 log2; Gene expression MOG ([3]; 100 μM): 4.28 log2; Gene expression IL23R ([4]; 100 μM): 4.86 log2; Gene expression TMEM108 ([5]; 100 μM): 3.62 log2; Gene expression DNER ([6]; 100 μM): 5.51 log2; Gene expression IL20RA ([7]; 100 μM): 3.38 log2 |
| COCCCCCC[C@@H]1C[C@@H]2[C@H](CC[C@]3(C)C(O)CC[C@@H]23)c2ccc(O)cc21 (stereo partly drawn) [compound 21, (6R,8R,9S,13S,14S)-6-(6-methoxyhexyl)-13-methyl-7,8,9,11,12,13,14,15,16,17-decahydro-6H-cyclopenta[a]phenanthrene-3,17-diol] | 2.59 | 5.04 | 5.32 | 3.08 | 5.55 | 5.46 | 3.96 | 4.79 | 4.39 | potent | up-regulate | Gene expression IL28A (Interleukin 28A (IL28A); 10 μM): 1.44 log2; Gene expression MBP ([1]; 10 μM): 6.07 log2; Gene expression OLIG2 ([2]; 10 μM): 6.16 log2; Gene expression Connexin AF251047 (Connexin (AF251047); 10 μM): 2.74 log2; Gene expression MOG ([3]; 10 μM): 5.23 log2; Gene expression IL23R ([4]; 10 μM): 5.31 log2; Gene expression TMEM108 ([5]; 10 μM): 3.92 log2; Gene expression DNER ([6]; 10 μM): 6.20 log2; Gene expression IL20RA ([7]; 10 μM): 4.42 log2; Activity to differentiate oligodendrocytes compared to DMSO ([8]; 10 μM, 4 days (96 hours), mouse OPC culture, PLP-EGFP signal): 3 fold; Activity to differentiate oligodendrocytes compared to positive control CNTF ([8]; 10 μM, 4 days (96 hours), mouse OPC culture, CNTF 10 μM): 1.5 fold; Activity to differentiate oligodendrocytes compared to positive control MEKi ([8]; 10 μM, 4 days (96 hours), mouse OPC culture, MEKi 1 μM): 2.0 fold; Extent of process formation ([8]; compared to DMSO and all other compounds tested, including CNTF, FIGS. 2 and 4): greatest |
